Experimental data taken from patent US20260015350A1, “AZAQUINAZOLINE PAN-KRAS INHIBITORS” (Mirati Therapeutics, Inc., priority 2022, published 2026).

Assays:
KRas^G12D = target: T1, KRas^G12D (Homo sapiens, UniProt P01116, G12D); test: KRas binding assay (TR-FRET tracer displacement), KRas G12D
T1 construct: Biotinylated KRas (corresponding to amino acids 1-169, produced at Accelegan Inc.); biotin (biotinylated); purchased Accelegan Inc

KRas^G12R = target: T2, KRas^G12R (Homo sapiens, UniProt P01116, G12R); test: KRas binding assay (TR-FRET tracer displacement), KRas G12R
T2 construct: Biotinylated KRas (corresponding to amino acids 1-169, produced at Accelegan Inc.); biotin (biotinylated); purchased Accelegan Inc

KRas^G12V = target: T3, KRas^G12V (Homo sapiens, UniProt P01116, G12V); test: KRas binding assay (TR-FRET tracer displacement), KRas G12V
T3 construct: Biotinylated KRas (corresponding to amino acids 1-169, produced at Accelegan Inc.); biotin (biotinylated); purchased Accelegan Inc

[1] = system: KRas-mediated phosphorylation of ERK in MKN1 cells; test: Inhibition of KRas-mediated phosphorylation of ERK (Cisbio HTRF pERK), MKN1 cells; type: cell-based; details: Homo sapiens, MKN-1
Summary of the method: (§1)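 Overnight culture at 37° C./5% CO2 in RPMI containing 10% FBS, seeded 6,000 cells per well, preceded the assay. A covered 4-hour incubation at room temperature followed, then HTRF signal for phosphorylated ERK was measured.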

[2] = system: KRas-mediated phosphorylation of ERK in PSN1 cells; test: Inhibition of KRas-mediated phosphorylation of ERK (Cisbio HTRF pERK), PSN1 cells; type: cell-based; details: Homo sapiens
Summary of the method: as §1

[3] = system: KRas-mediated phosphorylation of ERK in AsPC-1 cells; test: Inhibition of KRas-mediated phosphorylation of ERK (Cisbio HTRF pERK), AsPC-1 cells; type: cell-based; details: for IC50: HTRF pERK
Summary of the method: (§2)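 Following a 3-hr exposure of cells to serially diluted compound (from 10 uM, 3-fold, 10 doses), cold lysis for 40 mins preceded a 2-hr room-temperature HTRF immunoassay for phosphorylated ERK.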

[4] = system: KRas-mediated phosphorylation of ERK in H727 cells; test: Inhibition of KRas-mediated phosphorylation of ERK (Cisbio HTRF pERK), H727 cells; type: cell-based; details: for IC50: HTRF pERK
Summary of the method: as §2

[5] = system: KRas-mediated phosphorylation of ERK in A549 cells; test: Inhibition of KRas-mediated phosphorylation of ERK (Cisbio HTRF pERK), A549 cells; type: cell-based; details: for IC50 / inhibition at 0.1 µM: Homo sapiens; for IC50: HTRF pERK; for inhibition at 0.1 µM: A549, 3 h
Summary of the method: (§3)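 Min control wells contained 0.2 uM Trametinib, while test compounds ran as 10 doses (3-fold, top 10 uM; 0.8% DMSO final) on cells for 3 hrs. After 40 mins lysis at 4° C, lysates were probed with HTRF antibodies for 2 hrs at room temperature.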

[6] = system: KRas-mediated phosphorylation of ERK in H460 cells; test: Inhibition of KRas-mediated phosphorylation of ERK (Cisbio HTRF pERK), H460 cells; type: cell-based; details: for IC50 / inhibition at 0.1 µM: Homo sapiens; for IC50: NCI-H460, HTRF pERK; for inhibition at 0.1 µM: NCI-H460, 3 h
Summary of the method: as §2

[7] = system: KRas-mediated phosphorylation of ERK in HCT116 cells; test: Inhibition of KRas-mediated phosphorylation of ERK (Cisbio HTRF pERK), HCT116 cells; type: cell-based; details: for IC50 / inhibition at 0.1 µM: Homo sapiens; for IC50: HCT-116, HTRF pERK; for inhibition at 0.1 µM: HCT-116, 3 h
Summary of the method: as §3

[8] = system: KRas-mediated phosphorylation of ERK in H358 cells; test: Inhibition of KRas-mediated phosphorylation of ERK (Cisbio HTRF pERK), H358 cells; type: cell-based; details: for IC50 / inhibition at 0.1 µM: Homo sapiens; for IC50: NCI-H358, HTRF pERK; for inhibition at 0.1 µM: NCI-H358, 3 h
Summary of the method: as §2

[9] = Homo sapiens, ASPC1, AsPC-1 cells
[10] = Homo sapiens, NCI-H727, H727 cells
[11] = single point, 100 nM compound, 3 hrs
[12] = single point, 100 nM compound, 3 hrs, 0.1 µM

T2 sequence (P01116 1-169 isoform P01116-2 G12R): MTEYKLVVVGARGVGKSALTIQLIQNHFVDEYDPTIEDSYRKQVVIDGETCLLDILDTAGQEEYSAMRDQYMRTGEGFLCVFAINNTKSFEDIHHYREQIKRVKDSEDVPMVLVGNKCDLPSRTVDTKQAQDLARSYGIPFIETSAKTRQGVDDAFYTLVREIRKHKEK
T3 sequence (P01116 1-169 isoform P01116-2 G12V): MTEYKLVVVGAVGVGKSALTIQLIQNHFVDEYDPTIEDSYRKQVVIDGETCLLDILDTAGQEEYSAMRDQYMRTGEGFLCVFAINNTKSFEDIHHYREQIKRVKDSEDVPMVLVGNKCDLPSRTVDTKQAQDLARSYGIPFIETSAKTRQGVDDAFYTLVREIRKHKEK
T1 sequence (P01116 1-169 isoform P01116-2 G12D): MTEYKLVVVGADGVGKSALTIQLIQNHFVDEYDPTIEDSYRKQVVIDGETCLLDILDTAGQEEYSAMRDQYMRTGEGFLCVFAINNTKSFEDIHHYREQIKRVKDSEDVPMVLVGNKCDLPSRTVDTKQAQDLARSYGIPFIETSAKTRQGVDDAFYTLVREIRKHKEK

SMILES | IC50 (KRas^G12D) [nM] | IC50 (KRas^G12R) [nM] | IC50 (KRas^G12V) [nM] | IC50 [1] [nM] | IC50 [2] [nM] | IC50 [3, 9] [nM] | IC50 [4, 10] [nM] | IC50 [5] [nM] | IC50 [6] [nM] | IC50 [7] [nM] | IC50 [8] [nM] | inhibition at 0.1 µM [5, 11] [%] | inhibition at 0.1 µM [8, 11] [%] | further results
CCc1c(F)ccc2cc(O)cc(-c3ncc4c(N5CC6CCC(C5)C6CC(=O)NC)nc(OC[C@@]56CCCN5C[C@H](F)C6)nc4c3F)c12 (stereo partly drawn) [Example 863, 2-((1R,5S,8S)-3-(7-(8-ethyl-7-fluoro-3-hydroxynaphthalen-1-yl)-8-fluoro-2-(((2R,7aS)-2-fluorotetrahydro-1H-pyrrolizin-7a(5H)-yl)methoxy)pyrido[4,3-d]pyrimidin-4-yl)-3-azabicyclo[3.2.1]octan-8-yl)-N-methylacetamide] | 145 | 34 | 32 | 208 | > 10000 | > 10000 | 4000 | > 10000 | 1990 | 3890 | 1360 |  |  | 
CCc1c(F)ccc2cc(O)cc(-c3ncc4c(N5CCC[C@@](C)(O)C5)nc(OC[C@@]56CCCN5[C@H](COC)CC6)nc4c3F)c12 [Example 826, (R)-1-(7-(8-ethyl-7-fluoro-3-hydroxynaphthalen-1-yl)-8-fluoro-2-(((3S,7aS)-3-(methoxymethyl)tetrahydro-1H-pyrrolizin-7a(5H)-yl)methoxy)pyrido[4,3-d]pyrimidin-4-yl)-3-methylpiperidin-3-ol] | < 2 | < 2 | < 2 | 7 | 2390 | 12 | 51 | 44 | 30 | 74 | 9 |  |  | 
CCc1c(F)ccc2cc(O)cc(-c3ncc4c(N5CC6CCC(C5)C6C(=O)NC)nc(OC[C@@]56CCCN5C[C@H](F)C6)nc4c3F)c12 (stereo partly drawn) [Example 850, (1R,5S,8S)-3-(7-(8-ethyl-7-fluoro-3-hydroxynaphthalen-1-yl)-8-fluoro-2-(((2R,7aS)-2-fluorotetrahydro-1H-pyrrolizin-7a(5H)-yl)methoxy)pyrido[4,3-d]pyrimidin-4-yl)-N-methyl-3-azabicyclo[3.2.1]octane-8-carboxamide] | 6 | 10 | 8 | 4 | > 10000 | 1450 | 2280 | 862 | 83 | 171 | 150 |  |  | 
Oc1cc(-c2ncc3c(N4CCOCC5(CCO5)C4)nc(OC[C@@]45CCCN4C[C@H](F)C5)nc3c2F)c2c(Cl)c(F)ccc2c1 (stereo partly drawn) [Example 868, 5-chloro-6-fluoro-4-(8-fluoro-2-(((2R,7aS)-2-fluorotetrahydro-1H-pyrrolizin-7a(5H)-yl)methoxy)-4-(1,6-dioxa-9-azaspiro[3.6]decan-9-yl)pyrido[4,3-d]pyrimidin-7-yl)naphthalen-2-ol] | < 2 | < 2 | < 2 | 21 | 3420 | 17 | 24 | 61 | 22 | 53 | 12 |  |  | 
CCc1c(F)ccc2cc(O)cc(-c3ncc4c(N5CCC[C@@](C)(O)C5)nc(OC[C@]56CCCN5[C@H](CF)CC6)nc4c3F)c12 [Example 879, (R)-1-(7-(8-ethyl-7-fluoro-3-hydroxynaphthalen-1-yl)-8-fluoro-2-(((3S,7aR)-3-(fluoromethyl)tetrahydro-1H-pyrrolizin-7a(5H)-yl)methoxy)pyrido[4,3-d]pyrimidin-4-yl)-3-methylpiperidin-3-ol] | 2 | 3 | < 2 | 1 | 889 | 12 | 35 | 30 | 25 | 65 | 14 |  |  | 
CCc1c(F)ccc2cc(O)cc(-c3ncc4c(N5CC6CCC(CC(=O)N(C)C)(C6)C5)nc(OC[C@@]56CCCN5C[C@H](F)C6)nc4c3F)c12 (stereo partly drawn) [Example 911, 2-(3-(7-(8-ethyl-7-fluoro-3-hydroxynaphthalen-1-yl)-8-fluoro-2-(((2R,7aS)-2-fluorotetrahydro-1H-pyrrolizin-7a(5H)-yl)methoxy)pyrido[4,3-d]pyrimidin-4-yl)-3-azabicyclo[3.2.1]octan-1-yl)-N,N-dimethylacetamide] | 11 | 10 | 3 | 17 | > 10000 | 526 | 527 | 226 | 108 | 231 | 114 |  |  | 
C#Cc1c(F)ccc2cc(O)cc(-c3ncc4c(N5CCC[C@@](C)(O)C5)nc(OC[C@]56CCCN5[C@H](COC(=O)N(C)C)CC6)nc4c3F)c12 [Example 753, ((3S,7aR)-7a-(((7-(8-ethynyl-7-fluoro-3-hydroxynaphthalen-1-yl)-8-fluoro-4-((R)-3-hydroxy-3-methylpiperidin-1-yl)pyrido[4,3-d]pyrimidin-2-yl)oxy)methyl)hexahydro-1H-pyrrolizin-3-yl)methyl dimethylcarbamate] | < 2 | 2 | < 2 | 14 | 3080 | 69 | 83 |  |  |  |  | 2 | 76 | inhibition at 0.1 µM [6, 11]: 42%; inhibition at 0.1 µM [7, 11]: 23%
CCc1c(F)ccc2cc(O)cc(-c3ncc4c(N5CC6CCC(C5)C6C#N)nc(OC[C@@]56CCCN5C[C@H](F)C6)nc4c3F)c12 (single isomer, unassigned) [Example 561] | 7 | < 2 | < 2 | 1 | > 10000 |  |  | 4 | 5 | 24 | 3 |  |  | IC50 ([3]; AsPC-1 cells): 80 nM; Inhibition (HTRF % at 100 nM) of KRas-mediated Phosphorylation of ERK, AsPC-1 ([3]; single point, 100 nM compound, 3 hrs, AsPC-1 cells, 0.1 µM): 30%; IC50 ([4]; H727 cells): 13 nM; Inhibition (HTRF % at 100 nM) of KRas-mediated Phosphorylation of ERK, H727 ([4]; single point, 100 nM compound, 3 hrs, H727 cells, 0.1 µM): 74%; Inhibition (HTRF % at 100 nM) of KRas-mediated Phosphorylation of ERK, A549 [5, 12]: 103%; Inhibition (HTRF % at 100 nM) of KRas-mediated Phosphorylation of ERK, H460 [6, 12]: 99%; Inhibition (HTRF % at 100 nM) of KRas-mediated Phosphorylation of ERK, HCT116 [7, 12]: 63%; Inhibition (HTRF % at 100 nM) of KRas-mediated Phosphorylation of ERK, H358 [8, 12]: 99%
CCc1c(F)ccc2cc(O)cc(-c3ncc4c(N5CCC[C@@](C)(O)C5)nc(OCC5(CN(C)C)CC56CC6)nc4c3F)c12 (stereo partly drawn) [Example 783, (3R)-1-(2-((1-((dimethylamino)methyl)spiro[2.2]pentan-1-yl)methoxy)-7-(8-ethyl-7-fluoro-3-hydroxynaphthalen-1-yl)-8-fluoropyrido[4,3-d]pyrimidin-4-yl)-3-methylpiperidin-3-ol] | 2 | 5 | 2 | 19 | 9780 | 52 | 187 |  |  |  |  | 34 | 62 | inhibition at 0.1 µM ([3]; Homo sapiens, ASPC1, 3 h, single point, 100 nM compound, 3 hrs, AsPC-1 cells): 47%; inhibition at 0.1 µM ([4]; Homo sapiens, NCI-H727, 3 h, single point, 100 nM compound, 3 hrs, H727 cells): 12%; inhibition at 0.1 µM [6, 11]: 47%; inhibition at 0.1 µM [7, 11]: 31%
CCc1c(F)ccc2cc(O)cc(-c3ncc4c(N5CCCC6(CNC(=O)N6)C5)nc(OC[C@]56CCCN5[C@H](COC(=O)N(C)C)CC6)nc4c3F)c12 (stereo partly drawn) [Example 711, ((3S,7aR)-7a-(((7-(8-ethyl-7-fluoro-3-hydroxynaphthalen-1-yl)-8-fluoro-4-(2-oxo-1,3,7-triazaspiro[4.5]decan-7-yl)pyrido[4,3-d]pyrimidin-2-yl)oxy)methyl)hexahydro-1H-pyrrolizin-3-yl)methyl dimethylcarbamate] | < 2 | < 2 | < 2 | 21 | 6220 | 121 | 196 |  | 109 | 247 |  | 43 | 78 | 
